Source: paper PMC4476725 (PLoS Pathogens, 2015)
Where two headings read alike, the source gives them in different places.

Experiments:
HCV polymerase = HCV polymerase (Hepatitis C virus genotype 1b, UniProt Q9WMX2); test: HCV polymerase inhibition assay; format: biochemical; settings: for IC50: read-out: HCV polymerase inhibition class (IC50); for inhibition of HCV polymerase (in words): Fig 5B
RSV RNP complex = RSV RNP complex (Human respiratory syncytial virus A, UniProt P28887); test: biochemical; format: biochemical; settings: for IC50: read-out: RSV polymerase inhibition class (IC50, RSV RNP complex); for inhibition of RSV RNP complex (in words): Fig 5B
[1] = molecular target: T1, wild-type RSV L-P RNA polymerase complex (Human respiratory syncytial virus A, UniProt P28887); format: biochemical
T1 construct: made in house; host or cells: insect cells
T1 sequence (P28887 whole entry): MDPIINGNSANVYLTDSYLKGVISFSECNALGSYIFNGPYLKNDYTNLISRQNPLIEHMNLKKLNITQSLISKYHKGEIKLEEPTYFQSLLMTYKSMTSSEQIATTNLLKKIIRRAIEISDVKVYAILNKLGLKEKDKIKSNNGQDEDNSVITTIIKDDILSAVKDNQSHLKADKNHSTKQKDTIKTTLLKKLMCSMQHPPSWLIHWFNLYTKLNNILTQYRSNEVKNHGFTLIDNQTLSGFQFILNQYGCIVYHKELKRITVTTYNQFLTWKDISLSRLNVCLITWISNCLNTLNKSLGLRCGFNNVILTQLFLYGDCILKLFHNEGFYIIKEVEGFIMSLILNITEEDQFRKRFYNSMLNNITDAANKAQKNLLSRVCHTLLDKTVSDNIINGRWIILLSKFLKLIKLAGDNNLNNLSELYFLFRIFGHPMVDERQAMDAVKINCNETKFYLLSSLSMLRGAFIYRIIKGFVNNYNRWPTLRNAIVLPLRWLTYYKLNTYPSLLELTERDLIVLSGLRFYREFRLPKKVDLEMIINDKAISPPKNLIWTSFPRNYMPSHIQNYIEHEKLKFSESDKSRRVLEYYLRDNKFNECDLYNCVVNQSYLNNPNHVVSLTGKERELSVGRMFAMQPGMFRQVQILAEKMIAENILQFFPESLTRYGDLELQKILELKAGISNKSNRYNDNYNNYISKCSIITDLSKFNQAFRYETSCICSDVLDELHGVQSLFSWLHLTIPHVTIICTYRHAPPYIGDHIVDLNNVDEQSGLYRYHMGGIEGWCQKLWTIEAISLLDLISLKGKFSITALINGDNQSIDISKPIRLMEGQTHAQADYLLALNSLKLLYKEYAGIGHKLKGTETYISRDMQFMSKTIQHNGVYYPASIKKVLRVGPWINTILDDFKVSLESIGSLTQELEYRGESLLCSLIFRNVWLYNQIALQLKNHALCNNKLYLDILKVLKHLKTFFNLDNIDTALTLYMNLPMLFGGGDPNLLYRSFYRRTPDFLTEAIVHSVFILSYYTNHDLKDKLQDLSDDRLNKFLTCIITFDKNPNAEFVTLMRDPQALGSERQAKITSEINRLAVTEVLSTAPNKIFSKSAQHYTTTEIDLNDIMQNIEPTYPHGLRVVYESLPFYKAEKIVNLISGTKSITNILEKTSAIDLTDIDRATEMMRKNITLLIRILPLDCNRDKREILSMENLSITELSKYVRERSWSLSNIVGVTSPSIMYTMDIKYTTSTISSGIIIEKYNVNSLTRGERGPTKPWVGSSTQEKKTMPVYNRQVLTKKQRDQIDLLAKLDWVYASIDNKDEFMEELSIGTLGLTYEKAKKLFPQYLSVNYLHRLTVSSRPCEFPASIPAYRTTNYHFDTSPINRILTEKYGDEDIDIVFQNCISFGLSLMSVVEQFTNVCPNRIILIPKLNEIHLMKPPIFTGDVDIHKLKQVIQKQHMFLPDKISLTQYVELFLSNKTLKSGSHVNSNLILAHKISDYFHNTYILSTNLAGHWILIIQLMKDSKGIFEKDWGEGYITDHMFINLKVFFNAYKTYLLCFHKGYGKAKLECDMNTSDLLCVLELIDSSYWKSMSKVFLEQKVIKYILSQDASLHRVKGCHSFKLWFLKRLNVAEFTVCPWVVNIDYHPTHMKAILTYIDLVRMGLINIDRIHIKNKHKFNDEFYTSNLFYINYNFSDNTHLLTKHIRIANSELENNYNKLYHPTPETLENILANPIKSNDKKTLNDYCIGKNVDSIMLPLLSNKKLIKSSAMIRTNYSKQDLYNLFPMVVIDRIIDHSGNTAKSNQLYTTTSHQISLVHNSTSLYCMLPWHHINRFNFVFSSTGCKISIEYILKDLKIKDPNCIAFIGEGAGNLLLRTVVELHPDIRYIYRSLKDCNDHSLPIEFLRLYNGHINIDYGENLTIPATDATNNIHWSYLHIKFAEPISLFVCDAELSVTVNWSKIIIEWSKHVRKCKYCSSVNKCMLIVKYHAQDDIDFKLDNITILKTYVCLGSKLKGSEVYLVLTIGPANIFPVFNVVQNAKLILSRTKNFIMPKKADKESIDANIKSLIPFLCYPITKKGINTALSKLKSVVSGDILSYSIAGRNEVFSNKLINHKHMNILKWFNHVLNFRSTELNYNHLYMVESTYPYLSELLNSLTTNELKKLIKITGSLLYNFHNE
T1 sequence (P03421 whole entry, further chain): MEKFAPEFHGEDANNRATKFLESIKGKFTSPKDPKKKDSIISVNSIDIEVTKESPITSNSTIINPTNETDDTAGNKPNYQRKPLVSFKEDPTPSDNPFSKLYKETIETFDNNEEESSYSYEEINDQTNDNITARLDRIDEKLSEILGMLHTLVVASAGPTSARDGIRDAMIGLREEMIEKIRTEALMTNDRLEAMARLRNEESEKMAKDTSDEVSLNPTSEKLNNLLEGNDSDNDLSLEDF

[2] = molecular target: RSV polymerase QUAD mutant (Human respiratory syncytial virus A, UniProt P28887, A789V/I796V/L795I/M628L); test: Single nucleotide incorporation by recombinant RSV L-P polymerase, QUAD mutant; format: biochemical; settings: primer extension from the +3 position, n = 2
[3] = molecular target: human mitochondrial RNA polymerase (Homo sapiens, UniProt O00411); test: DdRp assay with human mitochondrial RNA polymerase, single turnover; format: biochemical; settings: 100 μM of each NTP
Chain of human mitochondrial RNA polymerase (O00411 42-1230): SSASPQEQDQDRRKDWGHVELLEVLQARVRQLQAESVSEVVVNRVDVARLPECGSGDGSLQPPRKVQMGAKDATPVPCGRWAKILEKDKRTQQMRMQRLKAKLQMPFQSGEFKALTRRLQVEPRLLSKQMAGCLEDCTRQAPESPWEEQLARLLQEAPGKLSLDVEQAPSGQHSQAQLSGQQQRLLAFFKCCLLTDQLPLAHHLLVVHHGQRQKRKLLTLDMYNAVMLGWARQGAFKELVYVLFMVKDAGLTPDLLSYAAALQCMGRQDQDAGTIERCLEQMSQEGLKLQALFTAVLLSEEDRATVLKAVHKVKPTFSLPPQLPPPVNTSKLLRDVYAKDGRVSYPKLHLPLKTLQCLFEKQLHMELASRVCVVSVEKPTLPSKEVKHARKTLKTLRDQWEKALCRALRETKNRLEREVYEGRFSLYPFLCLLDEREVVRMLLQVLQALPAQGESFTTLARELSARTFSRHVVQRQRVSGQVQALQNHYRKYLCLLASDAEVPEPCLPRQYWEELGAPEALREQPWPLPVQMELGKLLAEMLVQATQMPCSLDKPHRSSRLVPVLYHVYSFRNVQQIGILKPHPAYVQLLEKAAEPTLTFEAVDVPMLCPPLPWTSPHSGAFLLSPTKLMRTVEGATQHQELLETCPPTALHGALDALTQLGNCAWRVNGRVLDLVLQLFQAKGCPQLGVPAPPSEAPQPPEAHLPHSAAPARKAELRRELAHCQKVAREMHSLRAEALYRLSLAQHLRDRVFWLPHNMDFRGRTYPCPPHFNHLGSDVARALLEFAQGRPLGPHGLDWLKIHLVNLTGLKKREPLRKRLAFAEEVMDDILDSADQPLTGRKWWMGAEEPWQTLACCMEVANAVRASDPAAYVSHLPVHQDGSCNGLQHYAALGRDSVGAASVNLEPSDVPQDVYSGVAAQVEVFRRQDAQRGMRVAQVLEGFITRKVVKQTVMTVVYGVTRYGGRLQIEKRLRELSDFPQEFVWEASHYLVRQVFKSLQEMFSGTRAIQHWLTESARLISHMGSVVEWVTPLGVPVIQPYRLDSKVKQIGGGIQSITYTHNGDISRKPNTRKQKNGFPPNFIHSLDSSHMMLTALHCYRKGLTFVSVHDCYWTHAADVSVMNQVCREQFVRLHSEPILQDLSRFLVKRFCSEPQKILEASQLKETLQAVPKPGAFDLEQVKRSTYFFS

RSV B1 = test: RSV inhibition by qRT-PCR in HEp-2 cells, RSV B1 strain; format: cell-based; settings: human respiratory syncytial virus, 120 h, 5 days, n = 3, read-out: EC50, inhibition of RNA replication of RSV B1
RSV A2 [4] = test: RSV inhibition by qRT-PCR in HEp-2 cells, RSV A2 strain; format: cell-based; settings: human respiratory syncytial virus
RSV replicon = test: RSV subgenomic replicon assay (luciferase); format: cell-based, Respiratory syncytial virus; settings: human respiratory syncytial virus; RSV replicon
Method: The RSV subgenomic replicon (Apath, Brooklyn, NY, USA) was used as previously described. The HeLa-derived cells containing the stable RSV replicon were cultured in DMEM containing 4500 mg/L D-glucose, L-glutamine, and 110 mg/L sodium pyruvate. The medium was further supplemented with 10% (v/v) FBS (Mediatech), 1% (v/v) penicillin/streptomycin (Mediatech), and 10 μg/mL of Blasticidin (BSD) (Invivogen). Cells were maintained at 37°C in a humidified 5% CO2 atmosphere. On the first day, 5000 RSV replicon cells per well were plated in a 96-well plate. On the following day, compounds to be tested were solubilized in 100% DMSO to 100 × the desired final testing concentration. Cells were incubated with compounds for 7 days at 37°C in a 5% CO2 atmosphere before measurement of the luciferase readout. Cell viability (CC50) was measured with a CellTiter-Glo cell proliferation assay (Promega).

[5] = system: influenza strain A/WSN/33 (H1N1); test: Influenza assay in A549 cells (neuraminidase readout); format: cell-based; settings: Influenza virus, 20h
[6] = system: RSV A and B clinical isolates; test: microbe, parasite or virus in culture; format: cell-based; settings: human respiratory syncytial virus
in vitro [7] = settings: human
in vitro [8] = settings: human; remark: listed apart in the source
Rhinovirus 1b = test: Human rhinovirus assay in HeLa-OHIO cells (CPE); format: cell-based; settings: Enterovirus
HCV replicon = test: microbe, parasite or virus in culture; format: cell-based; settings: Hepatitis C virus
in vitro [9] = settings: human; remark: listed apart in the source
in vitro [10] = settings: human; remark: listed apart in the source
RSV A2 [11] = test: Three-dimensional lung model, primary human tracheal/bronchial epithelial cells infected with RSV A2; format: cell-based; settings: human respiratory syncytial virus, Epithelial cell
[12] = molecular target: QUAD-mutant RSV polymerase (Human respiratory syncytial virus A, UniProt P28887, A789V/I796V/L795I/M628L); format: cell-based
[13] = system: Vesicular stomatitis virus; test: microbe, parasite or virus in culture; format: cell-based; settings: A549, 48 h
[14] = system: Parainfluenza virus type-3; test: PIV-3 antiviral assay in A549 cells; format: cell-based, human PIV-3 C243 strain; settings: 168 h, 7 days, qRT-PCR
[15] = HEp-2, Isolate A1997-12-35, RSV A
[16] = HEp-2, Isolate A1998-03-02, RSV A
[17] = HEp-2, Isolate A1998-12-21, RSV A
[18] = HEp-2, Isolate A2000-03-04, RSV A
[19] = HEp-2, Isolate A2001-02-20, RSV A
[20] = HEp-2, Isolate A2001-03-12, RSV A

Chain of HCV polymerase (Q9WMX2 2420-3010): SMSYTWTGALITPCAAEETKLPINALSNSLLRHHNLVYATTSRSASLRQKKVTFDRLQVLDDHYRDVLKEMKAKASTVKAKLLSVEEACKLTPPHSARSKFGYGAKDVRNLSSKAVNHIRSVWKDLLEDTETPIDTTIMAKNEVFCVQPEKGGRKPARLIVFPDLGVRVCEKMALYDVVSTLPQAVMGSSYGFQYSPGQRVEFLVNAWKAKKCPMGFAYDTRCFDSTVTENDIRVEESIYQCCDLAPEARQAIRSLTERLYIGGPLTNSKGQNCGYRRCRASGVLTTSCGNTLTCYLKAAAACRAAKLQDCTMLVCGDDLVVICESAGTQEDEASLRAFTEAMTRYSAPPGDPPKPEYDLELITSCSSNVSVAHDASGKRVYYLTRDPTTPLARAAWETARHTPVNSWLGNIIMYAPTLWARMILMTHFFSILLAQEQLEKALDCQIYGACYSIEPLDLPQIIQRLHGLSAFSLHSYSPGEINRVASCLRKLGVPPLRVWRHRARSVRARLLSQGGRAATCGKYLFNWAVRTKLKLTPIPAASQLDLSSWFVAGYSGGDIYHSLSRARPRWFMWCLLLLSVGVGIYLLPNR

## cytidine triphosphate [CTP, reference compound]
HCV polymerase
  IC50: > 10000 nM
RSV RNP complex
  IC50: > 10000 nM
[1]; primer extension from the +3 position, read-out: Km, single nucleotide incorporation, WT RSV L-P
  Km: 0.057 ± 0.009 µM
[2]
  Km: 0.056 ± 0.01 µM

## C[C@@]1(F)[C@H](O)[C@@H](COP(=O)(O)OP(=O)(O)OP(=O)(O)O)O[C@H]1n1ccc(N)nc1=O [mericitabine-TP, 2'F-2'Me-CTP, reference compound]
HCV polymerase; second symbol of RSV / HCV
  IC50: < 100 nM
RSV RNP complex; first symbol of RSV / HCV
  IC50: > 10000 nM
[1]; Fig 5A
  substrate and chain termination profile with recombinant RSV polymerase (in words): almost completely inactive
[1]; Km CTP analog / Km CTP
  discrimination relative to natural CTP, WT RSV polymerase: greater than 5,000 fold
[1]; at a concentration of 300 μM
  level of incorporation by RSV polymerase: less than 20%

## Nc1ccn([C@@H]2O[C@H](COP(=O)(O)OP(=O)(O)OP(=O)(O)O)[C@@H](O)C2(F)F)c(=O)n1 [2'diF-CTP, reference compound]
HCV polymerase
  inhibition of HCV polymerase (in words): did not efficiently inhibit
HCV polymerase; second symbol of RSV / HCV
  IC50: 100 to 10000 nM
RSV RNP complex
  inhibition of RSV RNP complex (in words): did not efficiently inhibit
RSV RNP complex; first symbol of RSV / HCV
  IC50: > 10000 nM
[1]
  substrate and chain termination profile with recombinant RSV polymerase (in words): substrates for RSV polymerase, but did not cause immediate chain termination

## [N-]=[N+]=N[C@]1(COP(=O)(O)OP(=O)(O)OP(=O)(O)O)O[C@@H](n2ccc(N)nc2=O)[C@H](O)[C@@H]1O [4'N3-CTP, reference compound]
HCV polymerase
  inhibition of HCV polymerase (in words): dual RSV/HCV polymerase inhibitors
HCV polymerase; second symbol of RSV / HCV
  IC50: < 100 nM
RSV RNP complex
  inhibition of RSV RNP complex (in words): dual RSV/HCV polymerase inhibitors
RSV RNP complex; first symbol of RSV / HCV
  IC50: 100 to 10000 nM
[1]
  substrate and chain termination profile with recombinant RSV polymerase (in words): both substrates and chain terminators
[3]
  recognition as substrate by human mitochondrial RNA polymerase (in words): efficiently incorporated

## [N-]=[N+]=NC1(COP(=O)(O)OP(=O)(O)OP(=O)(O)O)OC(n2ccc(N)nc2=O)C(F)(F)C1O (stereo not drawn) [2'diF-4'N3-CTP]
HCV polymerase
  inhibition of HCV polymerase (in words): dual RSV/HCV polymerase inhibitors
HCV polymerase; second symbol of RSV / HCV
  IC50: 100 to 10000 nM
RSV RNP complex
  inhibition of RSV RNP complex (in words): dual RSV/HCV polymerase inhibitors
RSV RNP complex; first symbol of RSV / HCV
  IC50: 100 to 10000 nM
[1]
  substrate and chain termination profile with recombinant RSV polymerase (in words): both substrates and chain terminators

## Nc1ccn([C@@H]2O[C@@](CO)(CCl)[C@@H](O)[C@H]2F)c(=O)n1 [ALS-8112, 2'-fluoro-4'-chloromethyl (2'F-4'ClCH2) cytidine]
RSV B1
  EC50: 132 ± 55 nM
RSV A2 [4]; 120 h, HEp-2 cells, 5 days, qRT-PCR, n = 3, read-out: EC50, inhibition of RNA replication of RSV A2
  EC50: 153 ± 76 nM
RSV A2 [4]; HEp-2, read-out: EC50
  EC50: 150 nM
RSV replicon
  EC50: 150 nM
[5]
  EC50: > 100000 nM
[6]; HEp-2, Isolate 1144, RSV B
  EC50: 290 ± 20 nM
  EC90: 1470 ± 220 nM
[6]; HEp-2, Isolate 1262, RSV B
  EC50: 110 ± 30 nM
  EC90: 2180 ± 270 nM
[6]; HEp-2, Isolate 9320, RSV B
  EC50: 90 ± 30 nM
  EC90: 960 ± 160 nM
[6]; HEp-2, Isolate 18537, RSV B
  EC50: 210 ± 60 nM
  EC90: 990 ± 220 nM
[6]; [15]
  EC50: 180 ± 40 nM
  EC90: 2460 ± 150 nM
[6]; [16]
  EC50: 260 ± 60 nM
  EC90: 2150 ± 270 nM
[6]; [17]
  EC50: 90 ± 20 nM
  EC90: 1110 ± 540 nM
[6]; [18]
  EC50: 180 ± 20 nM
  EC90: 2180 ± 240 nM
[6]; [19]
  EC50: 100 ± 10 nM
  EC90: 1100 ± 530 nM
[6]; [20]
  EC50: 450 ± 70 nM
  EC90: 2330 ± 350 nM
[6]; HEp-2, Isolate Pep 121, RSV B
  EC50: 320 ± 70 nM
  EC90: 2070 ± 430 nM
In vitro [7]
  CC50: > 100000 nM
In vitro [8]
  CC50: > 100000 nM
A549; A549 cells, Influenza virus row
  CC50: > 100000 nM
A549; human
  CC50: > 100000 nM
Rhinovirus 1b
  EC50: > 100000 nM
HCV replicon; Huh-7, HCV replicon, read-out: HCV EC50
  EC50: > 100000 nM
HCV replicon; Huh-7 replicon, read-out: EC50
  EC50: > 100000 nM
In vitro [9]
  CC50: > 100000 nM
In vitro [10]
  CC50: > 100000 nM
RSV A2 [11]; Disease: Asthma, read-out: EC50
  EC50: 730 nM
RSV A2 [11]; Disease: Asthma, read-out: EC90
  EC90: 2700 nM
RSV A2 [11]; donor one, Disease: None, read-out: EC50
  EC50: 370 nM
RSV A2 [11]; donor one, Disease: None, read-out: EC90
  EC90: 2700 nM
RSV A2 [11]; donor two, Disease: None, read-out: EC50
  EC50: 90 nM
RSV A2 [11]; donor two, Disease: None, read-out: EC90
  EC90: 1300 nM
RSV A2 [11]; range over human donor cells (n = 3), read-out: EC50, RSV RNA replication in donor cells
  EC50: 90 to 730 nM
RSV A2 [11]; range over human donor cells (n = 3), read-out: EC90, RSV RNA replication in donor cells
  EC90: 1300 to 2700 nM
[12]
  maximum inhibition, QUAD-mutant minigenome: about 60%
[13]
  EC50: 3400 nM
[14]
  EC50: 1300 nM
